These results are taken from patent US20250092065A1, “2-(INDAZOL-5-YL)-6-(PIPERIDIN-4-YL)-1,7-NAPHTHYRIDINE DERIVATIVES AND RELATED COMPOUNDS AS MODULATORS FOR SPLICING NUCLEIC ACIDS AND FOR THE TREATMENT OF PROLIFERATIVE DISEASES” (REMIX THERAPEUTICS INC., priority 2022, published 2025).

Structures are written as SMILES. Some results are limits rather than exact numbers.

One series relates to K562 cells. Nature of the series: Cell Titer Glo 2.0 cell viability (toxicity) assay, K562. Particulars: 500 cells/well, 72 hours.
The test system of a further series is Target C. Kind of series: RT-qPCR canonical junction panel assay, Target C mRNA. Particulars: Table 4, read-out: Target C IC50 (decrease in CJ mRNA levels). The series is classed as cell-based. The procedure, abridged:
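A673 or K562 cells treated with compound; CJ mRNA quantified by junction-spanning RT-qPCR probe after cDNA synthesis, normalised to GAPDH, GUSB or PPIA and DMSO (2^−ΔΔCt), scaled to set ΔCt assay window; IC50 from 4-parameter fit of CJ decrease.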
In general terms: Real-time PCR tracks product formation cycle by cycle.

A further series concerns HTT. Kind of series: HiBiT protein abundance assay, HTT (K562 HiBiT knock-in). The series is classed as cell-based, human. Particulars: HiBiT knock-in K562 cells, 24 hours, top dose 10 μM. Summed up: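 K562 HiBiT knock-in, 24 h, 37 °C, top 10 μM final, 3-fold ×10, DMSO ≤0.25%. Lytic HiBiT luminescence; PC = parental K562, NC = DMSO; 4PL IC50.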
For orientation: With HiBiT, luminescence reflects the tagged protein that the partner subunit can reach.

One may read the IC50 as the concentration that inhibits the measured activity by half. Consider `CC(C)NC1CCN(c2ccc3nc(-c4cc5cn(C)nc5c(F)c4O)ccc3n2)C1` (stereo not drawn) [Compound 388, 7-fluoro-5-{6-[3-(isopropylamino)pyrrolidin-1-yl]-1,5-naphthyridin-2-yl}-2-methylindazol-6-ol], for which the “Effect of Exemplary Compounds on Cell Viability, K562” value (“Effect of Exemplary Compounds” below) in the series with K562 cells is “A (A represents <100 nM)”. The half-maximal inhibitory concentration (IC50) in the series with Target C and with HTT was under 100 nM each time.

For `Cc1nc2cc(O)c(-c3ccc4nc(N5CCC(NCC6CC6)C5)ccc4n3)cc2o1` (stereo not drawn) [Compound 389, 6-(6-{3-[(cyclopropylmethyl)amino]pyrrolidin-1-yl}-1,5-naphthyridin-2-yl)-2-methyl-1,3-benzoxazol-5-ol], the “Effect of Exemplary Compounds” value in the series on K562 cells is recorded as “B (B represents 100-1000 nM)”. Also, the 50% inhibitory concentration (IC50) in the series on Target C is 100 to 1000 nM; with HTT, under 100 nM.

Turning to `Cc1nc2c(C)c(O)c(-c3ccc4nc(N5CCC(NCC6CC6)C5)ccc4n3)cc2o1` (stereo not drawn) [Compound 390, 6-(6-{3-[(cyclopropylmethyl)amino]pyrrolidin-1-yl}-1,5-naphthyridin-2-yl)-2,4-dimethyl-1,3-benzoxazol-5-ol], the “Effect of Exemplary Compounds” value with K562 cells is given as “A (A represents <100 nM)”. Moreover, the IC50 in the series with Target C and in the series on HTT was under 100 nM each time.

With `CNC1CCN(c2ccc3nc(-c4cc(F)c5nc(C)cn5c4)ncc3n2)C1` (stereo not drawn) [Compound 393, 1-(2-{8-fluoro-2-methylimidazo[1,2-a]pyridin-6-yl}pyrido[3,2-d]pyrimidin-6-yl)-N-methylpyrrolidin-3-amine], in the series on K562 cells, the “Effect of Exemplary Compounds” value is “B (B represents 100-1000 nM)”. The IC50 with Target C and in the series on HTT was 100 to 1000 nM throughout.

`Cc1c(O)c(-c2ncc3nc(C4CCNC4)ccc3n2)cc2cn(C)nc12` (stereo not drawn) [Compound 397, 2,7-dimethyl-5-[6-(pyrrolidin-3-yl)pyrido[3,2-d]pyrimidin-2-yl]indazol-6-ol; trifluoroacetic acid]: the “Effect of Exemplary Compounds” value in the series on K562 cells was “B (B represents 100-1000 nM)”. In addition, the 50% inhibitory concentration (IC50) in the series on Target C is over 10000 nM; in the series with HTT, 1000 to 10000 nM.

As to `Cc1c(O)c(-c2ncc3nc([C@H]4CCNC4)ccc3n2)cc2cn(C)nc12` [Compound 399], the “Effect of Exemplary Compounds” value in the series on K562 cells is given as “C (C represents 1000-9999 nM)”. Besides, the half-inhibitory concentration (IC50) in the series with Target C and with HTT was over 10000 nM throughout.

`Cn1cc2cc(-c3ncc4nc(C5CCNCC5)ccc4n3)c(O)c(C#N)c2n1` [Compound 403, 6-hydroxy-2-methyl-5-[6-(piperidin-4-yl)pyrido[3,2-d]pyrimidin-2-yl]indazole-7-carbonitrile; trifluoroacetic acid]: the “Effect of Exemplary Compounds” value with K562 cells was “B (B represents 100-1000 nM)”. Further, the values for the concentration for half-maximal inhibition (IC50) with Target C and in the series with HTT were 1000 to 10000 nM and 100 to 1000 nM, respectively.

Turning to `Cn1cc2cc(-c3ccc4nc(N5CCC(NC(C)(C)C)C5)ncc4n3)c(O)cc2n1` (stereo not drawn) [Compound 404, 5-{2-[3-(tert-butylamino)pyrrolidin-1-yl]pyrido[3,2-d]pyrimidin-6-yl}-2-methylindazol-6-ol], in the series with K562 cells, the “Effect of Exemplary Compounds” value is recorded as “B (B represents 100-1000 nM)”. The concentration for half-maximal inhibition (IC50) in the series on Target C and in the series on HTT was under 100 nM in each case.

On to `COc1cc(-c2ccc3nc(N4CCC(NC(C)(C)C)C4)ncc3n2)cnn1` (stereo not drawn) [Compound 405, N-tert-butyl-1-[6-(6-methoxypyridazin-4-yl)pyrido[3,2-d]pyrimidin-2-yl]pyrrolidin-3-amine], for which the “Effect of Exemplary Compounds” value in the series with K562 cells is given as “C (C represents 1000-9999 nM)”. In addition, the concentration for half-maximal inhibition (IC50) with Target C and in the series with HTT was 1000 to 10000 nM throughout.

Regarding `CN[C@H]1CCN(c2ccc3nc(-c4cc(C#N)c5nc(C)cn5c4)ncc3n2)C1` [Compound 406, 2-methyl-6-{6-[(3S)-3-(methylamino)pyrrolidin-1-yl]pyrido[3,2-d]pyrimidin-2-yl}imidazo[1,2-a]pyridine-8-carbonitrile], the “Effect of Exemplary Compounds” value in the series with K562 cells is on record as “B (B represents 100-1000 nM)”. In addition, the half-maximal inhibitory concentration (IC50) with Target C and with HTT was 1000 to 10000 nM throughout.

As for `CN[C@@H]1CCN(c2ccc3nc(-c4cc(C#N)c5nc(C)cn5c4)ncc3n2)C1` [Compound 407, 2-methyl-6-{6-[(3R)-3-(methylamino)pyrrolidin-1-yl]pyrido[3,2-d]pyrimidin-2-yl}imidazo[1,2-a]pyridine-8-carbonitrile], the “Effect of Exemplary Compounds” value in the series with K562 cells is “B (B represents 100-1000 nM)”. Moreover, the concentration for half-maximal inhibition (IC50) in the series on Target C lay in the range of 1000 to 10000 nM; with HTT it was 100 to 1000 nM.

Regarding `Cc1nc2cc(O)c(-c3ccc4nc(N5CCNCC5)ccc4n3)cc2o1` [Compound 408, 2-methyl-6-[6-(piperazin-1-yl)-1,5-naphthyridin-2-yl]-1,3-benzoxazol-5-ol], in the series with K562 cells, the “Effect of Exemplary Compounds” value is listed as “B (B represents 100-1000 nM)”. The IC50 fell in the range of 1000 to 10000 nM in the series on Target C and 100 to 1000 nM with HTT.

In the case of `Cc1nc2cc(O)c(-c3ccc4nc(N5CCN[C@@H](C)C5)ccc4n3)cc2o1` [Compound 409], in the series with K562 cells, the “Effect of Exemplary Compounds” value is “B (B represents 100-1000 nM)”. Also, the IC50 was in the range of 1000 to 10000 nM in the series with Target C and 100 to 1000 nM in the series with HTT.

On to `Cc1nc2cc(O)c(-c3ccc4nc(N5CCN6CCCC6C5)ccc4n3)cc2o1` (stereo not drawn) [Compound 410], for which the “Effect of Exemplary Compounds” value in the series on K562 cells is “B (B represents 100-1000 nM)”. Further, the IC50 in the series with Target C and with HTT was 100 to 1000 nM in each case.

On to `Cc1nc2cc(O)c(-c3ccc4nc(N5CCNC6(CC6)C5)ccc4n3)cc2o1` [Compound 411], for which the “Effect of Exemplary Compounds” value in the series on K562 cells is given as “C (C represents 1000-9999 nM)”. In addition, the IC50 with Target C and in the series with HTT was 1000 to 10000 nM in each case.

Regarding `Cc1nc2cc(O)c(-c3ccc4nc(N5CCC(NC(C)(C)C)CC5)ccc4n3)cc2o1` [Compound 412], the “Effect of Exemplary Compounds” value in the series with K562 cells is given as “B (B represents 100-1000 nM)”. The half-inhibitory concentration (IC50) with Target C and with HTT was 100 to 1000 nM in each case.

As for `Cc1nc2cc(O)c(-c3ccc4nc(N5CC[C@@H](NC(C)(C)C)C5)ncc4n3)cc2o1` [Compound 413, 6-{2-[(3R)-3-(tert-butylamino)pyrrolidin-1-yl]pyrido[3,2-d]pyrimidin-6-yl}-2-methyl-1,3-benzoxazol-5-ol], in the series on K562 cells, the “Effect of Exemplary Compounds” value was “B (B represents 100-1000 nM)”. Besides, the 50% inhibitory concentration (IC50) in the series on Target C and in the series with HTT was under 100 nM in each case.

For the compound `Cc1nc2cc(O)c(-c3ccc4nc(N5CC[C@H](NC(C)(C)C)C5)ncc4n3)cc2o1` [Compound 414, 6-{2-[(3S)-3-(tert-butylamino)pyrrolidin-1-yl]pyrido[3,2-d]pyrimidin-6-yl}-2-methyl-1,3-benzoxazol-5-ol], in the series on K562 cells, the “Effect of Exemplary Compounds” value was “B (B represents 100-1000 nM)”. In addition, the results for the IC50 in the series with Target C and in the series on HTT were 1000 to 10000 nM and 100 to 1000 nM, respectively.

`Cc1nc2c(C)c(O)c(-c3ccc4nc(N5CC[C@H](NC(C)C)C5)ncc4n3)cc2o1` [Compound 416, 6-{2-[(3S)-3-(isopropylamino)pyrrolidin-1-yl]pyrido[3,2-d]pyrimidin-6-yl}-2,4-dimethyl-1,3-benzoxazol-5-ol]: the “Effect of Exemplary Compounds” value with K562 cells was “A (A represents <100 nM)”. Further, the concentration for half-maximal inhibition (IC50) in the series on Target C and in the series with HTT was under 100 nM throughout.

Take `Cc1nc2cc(O)c(-c3ccc4cc(N5CC[C@@H](NC(C)(C)C)C5)ncc4n3)cc2o1` [Compound 417]: in the series on K562 cells, the “Effect of Exemplary Compounds” value is reported as “B (B represents 100-1000 nM)”. Moreover, the results for the half-inhibitory concentration (IC50) in the series on Target C and in the series on HTT were 1000 to 10000 nM and 100 to 1000 nM, respectively.
